Results taken from patent US6352998B2, “Pharmaceutical compositions” (Novartis AG, priority 1997, dated 2002).

Test system: chronic plaque psoriasis
Assay: Topical treatment of chronic plaque psoriasis in humans, once a day
Assay type: in vivo
Settings: topical application of 0.01 to 1% w/w once a day

| Compound | Efficacy in the treatment of chronic plaque psoriasis |
| --- | --- |
| CC[C@@H]1/C=C(\C)C[C@H](C)C[C@H](OC)[C@H]2O[C@@](O)(C(=O)C(=O)N3CCCC[C@H]3C(=O)O[C@H](/C(C)=C/[C@@H]3CC[C@@H](O)[C@H](OC)C3)[C@H](C)[C@@H](O)CC1=O)[C@H](C)C[C@@H]2OC (relative stereo) [Compound 3, [3S-[3R*[E(1S*,3S*,4S*)],4S*,5R*,8S*,9E,12R*,14R*,15S*,16R*,18S*,-19S*,26aR*]]-5,6,8,11,12,13,14,15,16,17,18,19,24,25,26,26a-hexadecahydro-5,19-dihydroxy-3-[2-(4-hydroxy-3-methoxy-cyclohexyl)-1-methylethenyl)]-14,16-dimethoxy4,10,12,18,-tetramethyl-8-ethyl-15,19-epoxy-3H-pyrido[2,1-c][1,4]oxaazacyclotricosine-1,7,20,21(4H,23H)-tetrone] | effective |
| [3S-[3R*[E(1S*,3S*,4S*)],4S*,5R*,8S*,9E,12R*,-14R*,15S*,16R*,18S*,19S*,26aR*]]-5,6,8,11,12,13,14,15,16,17,18,19,24,25,26,26a-hexadecahydro-5,19-dihydroxy-3-(3-hydroxymethylcyclopentyl)-1-methylethenyl)]-14,16-dimethoxy-4,10,12,18,-tetramethyl-8-ethyl-15,19-epoxy-3H-pyrido[2,1-c][1,4]oxaazacyclotricosine-1,7,20,21(4H,23H)-tetrone [Compound 2] | effective |
